Source: ChEMBL document CHEMBL1201861, “Genomics of Drug Sensitity in Cancer screening data, Wellcome Trust Sanger Institute”
pIC50: −log10 of the molar value.

Tested on: KS-1;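 also: growth inhibition of KS-1 cells, read out with a cell viability assay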
Test: cells
Assay type: functional, cell-based, Homo sapiens
Conditions: Homo sapiens, KS-1
Description: SANGER: Inhibition of human KS-1 cell growth in a cell viability assay.

| SMILES | pIC50 |
| --- | --- |
| COc1cccc2c1C(=O)c1c(O)c3c(c(O)c1C2=O)C[C@@](O)(C(=O)CO)C[C@@H]3O[C@H]1C[C@H](N)[C@H](O)[C@H](C)O1 [DOXORUBICIN] | 8.46 |

Tested on: IST-MES1;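 also: growth inhibition of IST-MES1 cells, measured with a cell viability assay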
Test: cells
Assay type: functional, cell-based, Homo sapiens
Conditions: Homo sapiens, IST-MES1
Description: SANGER: Inhibition of human IST-MES1 cell growth in a cell viability assay.

| SMILES | pIC50 |
| --- | --- |
| COc1cccc2c1C(=O)c1c(O)c3c(c(O)c1C2=O)C[C@@](O)(C(=O)CO)C[C@@H]3O[C@H]1C[C@H](N)[C@H](O)[C@H](C)O1 [DOXORUBICIN] | 6.49 |

Tested on: no-10;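 also: growth inhibition of no-10 cells, read out with a cell viability assay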
Test: cells
Assay type: functional, cell-based, Homo sapiens
Conditions: Homo sapiens
Description: SANGER: Inhibition of human no-10 cell growth in a cell viability assay.

| SMILES | pIC50 |
| --- | --- |
| COc1cccc2c1C(=O)c1c(O)c3c(c(O)c1C2=O)C[C@@](O)(C(=O)CO)C[C@@H]3O[C@H]1C[C@H](N)[C@H](O)[C@H](C)O1 [DOXORUBICIN] | 6.79 |

Tested on: GI-1;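 also: growth inhibition of human GI-1 cells, measured with a cell viability readout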
Test: cells
Assay type: functional, cell-based, Homo sapiens
Conditions: Homo sapiens, GI-1
Description: SANGER: Inhibition of human GI-1 cell growth in a cell viability assay.

| SMILES | pIC50 |
| --- | --- |
| COc1cccc2c1C(=O)c1c(O)c3c(c(O)c1C2=O)C[C@@](O)(C(=O)CO)C[C@@H]3O[C@H]1C[C@H](N)[C@H](O)[C@H](C)O1 [DOXORUBICIN] | 7.16 |

Tested on: SW 954;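 also: growth inhibition of SW954 human cancer cells, read out as cell viability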
Test: cells
Assay type: functional, cell-based, Homo sapiens
Conditions: Homo sapiens, SW 954
Description: SANGER: Inhibition of human SW954 cell growth in a cell viability assay.

| SMILES | pIC50 |
| --- | --- |
| COc1cccc2c1C(=O)c1c(O)c3c(c(O)c1C2=O)C[C@@](O)(C(=O)CO)C[C@@H]3O[C@H]1C[C@H](N)[C@H](O)[C@H](C)O1 [DOXORUBICIN] | 7.77 |

Tested on: NCI-H23;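 also: cell viability assay measuring growth inhibition of NCI-H23 cells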
Test: cells
Assay type: functional, cell-based, Homo sapiens
Conditions: Homo sapiens, NCI-H23
Description: SANGER: Inhibition of human NCI-H23 cell growth in a cell viability assay.

| SMILES | pIC50 |
| --- | --- |
| COc1cccc2c1C(=O)c1c(O)c3c(c(O)c1C2=O)C[C@@](O)(C(=O)CO)C[C@@H]3O[C@H]1C[C@H](N)[C@H](O)[C@H](C)O1 [DOXORUBICIN] | 6.55 |

Tested on: MLMA;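 also: growth inhibition of MLMA cells (human), determined through a cell viability readout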
Test: cells
Assay type: functional, cell-based, Homo sapiens
Conditions: Homo sapiens, MLMA
Description: SANGER: Inhibition of human MLMA cell growth in a cell viability assay.

| SMILES | pIC50 |
| --- | --- |
| COc1cccc2c1C(=O)c1c(O)c3c(c(O)c1C2=O)C[C@@](O)(C(=O)CO)C[C@@H]3O[C@H]1C[C@H](N)[C@H](O)[C@H](C)O1 [DOXORUBICIN] | 6.91 |

Tested on: MEG-01;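 also: growth inhibition of MEG-01 cells, read out by a cell viability assay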
Test: cells
Assay type: functional, cell-based, Homo sapiens
Conditions: Homo sapiens, MEG-01
Description: SANGER: Inhibition of human MEG-01 cell growth in a cell viability assay.

| SMILES | pIC50 |
| --- | --- |
| COc1cccc2c1C(=O)c1c(O)c3c(c(O)c1C2=O)C[C@@](O)(C(=O)CO)C[C@@H]3O[C@H]1C[C@H](N)[C@H](O)[C@H](C)O1 [DOXORUBICIN] | 6.75 |

Tested on: K562
Test: cells
Assay type: functional, cell-based, Homo sapiens
Conditions: Homo sapiens, K562
Description: SANGER: Inhibition of human K-562 cell growth in a cell viability assay.

| SMILES | pIC50 |
| --- | --- |
| COc1cccc2c1C(=O)c1c(O)c3c(c(O)c1C2=O)C[C@@](O)(C(=O)CO)C[C@@H]3O[C@H]1C[C@H](N)[C@H](O)[C@H](C)O1 [DOXORUBICIN] | 6.41 |

Tested on: NCI-H209;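 also: growth inhibition of human NCI-H209 cells, measured by a cell viability assay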
Test: cells
Assay type: functional, cell-based, Homo sapiens
Conditions: Homo sapiens, NCI-H209
Description: SANGER: Inhibition of human NCI-H209 cell growth in a cell viability assay.

| SMILES | pIC50 |
| --- | --- |
| COc1cccc2c1C(=O)c1c(O)c3c(c(O)c1C2=O)C[C@@](O)(C(=O)CO)C[C@@H]3O[C@H]1C[C@H](N)[C@H](O)[C@H](C)O1 [DOXORUBICIN] | 7.31 |

Tested on: KURAMOCHI;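 also: growth inhibition of KURAMOCHI cells, read out with a cell viability assay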
Test: cells
Assay type: functional, cell-based, Homo sapiens
Conditions: Homo sapiens, KURAMOCHI
Description: SANGER: Inhibition of human KURAMOCHI cell growth in a cell viability assay.

| SMILES | pIC50 |
| --- | --- |
| COc1cccc2c1C(=O)c1c(O)c3c(c(O)c1C2=O)C[C@@](O)(C(=O)CO)C[C@@H]3O[C@H]1C[C@H](N)[C@H](O)[C@H](C)O1 [DOXORUBICIN] | 6.90 |

Tested on: NTERA-2-cl-D1;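 also: inhibition of cell growth, measured with a cell viability assay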
Test: cells
Assay type: functional, cell-based, Homo sapiens
Conditions: Homo sapiens, NTERA-2-cl-D1
Description: SANGER: Inhibition of human NTERA-S-cl-D1 cell growth in a cell viability assay.

| SMILES | pIC50 |
| --- | --- |
| COc1cccc2c1C(=O)c1c(O)c3c(c(O)c1C2=O)C[C@@](O)(C(=O)CO)C[C@@H]3O[C@H]1C[C@H](N)[C@H](O)[C@H](C)O1 [DOXORUBICIN] | 8.86 |

Tested on: HL-60;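 also: growth inhibition of human HL-60 cells, read out with a cell viability assay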
Test: cells
Assay type: functional, cell-based, Homo sapiens
Conditions: Homo sapiens, HL-60
Description: SANGER: Inhibition of human HL-60 cell growth in a cell viability assay.

| SMILES | pIC50 |
| --- | --- |
| COc1cccc2c1C(=O)c1c(O)c3c(c(O)c1C2=O)C[C@@](O)(C(=O)CO)C[C@@H]3O[C@H]1C[C@H](N)[C@H](O)[C@H](C)O1 [DOXORUBICIN] | 7.20 |

Tested on: A4-Fuk;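 also: growth inhibition of A4-Fuk cells, read out by a cell viability assay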
Test: cells
Assay type: functional, cell-based, Homo sapiens
Conditions: Homo sapiens, A4-Fuk
Description: SANGER: Inhibition of human A4-Fuk cell growth in a cell viability assay.

| SMILES | pIC50 |
| --- | --- |
| COc1cccc2c1C(=O)c1c(O)c3c(c(O)c1C2=O)C[C@@](O)(C(=O)CO)C[C@@H]3O[C@H]1C[C@H](N)[C@H](O)[C@H](C)O1 [DOXORUBICIN] | 6.79 |

Tested on: NCI-H1838;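 also: growth inhibition of NCI-H1838 cells, determined with a cell viability readout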
Test: cells
Assay type: functional, cell-based, Homo sapiens
Conditions: Homo sapiens, NCI-H1838
Description: SANGER: Inhibition of human NCI-H1838 cell growth in a cell viability assay.

| SMILES | pIC50 |
| --- | --- |
| COc1cccc2c1C(=O)c1c(O)c3c(c(O)c1C2=O)C[C@@](O)(C(=O)CO)C[C@@H]3O[C@H]1C[C@H](N)[C@H](O)[C@H](C)O1 [DOXORUBICIN] | 6.39 |

Tested on: RCC10RGB;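 also: growth inhibition of human RCC10RGB cells, read out by a cell viability assay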
Test: cells
Assay type: functional, cell-based, Homo sapiens
Conditions: Homo sapiens, RCC10RGB
Description: SANGER: Inhibition of human RCC10RGB cell growth in a cell viability assay.

| SMILES | pIC50 |
| --- | --- |
| COc1cccc2c1C(=O)c1c(O)c3c(c(O)c1C2=O)C[C@@](O)(C(=O)CO)C[C@@H]3O[C@H]1C[C@H](N)[C@H](O)[C@H](C)O1 [DOXORUBICIN] | < 5.99 |

Tested on: ES8;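 also: growth inhibition of human ES8 cells, read out with a cell viability assay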
Test: cells
Assay type: functional, cell-based, Homo sapiens
Conditions: Homo sapiens, ES8
Description: SANGER: Inhibition of human ES8 cell growth in a cell viability assay.

| SMILES | pIC50 |
| --- | --- |
| COc1cccc2c1C(=O)c1c(O)c3c(c(O)c1C2=O)C[C@@](O)(C(=O)CO)C[C@@H]3O[C@H]1C[C@H](N)[C@H](O)[C@H](C)O1 [DOXORUBICIN] | 7.68 |

Tested on: EKVX;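 also: growth inhibition of human EKVX cells, read out with a cell viability assay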
Test: cells
Assay type: functional, cell-based, Homo sapiens
Conditions: Homo sapiens, EKVX
Description: SANGER: Inhibition of human EKVX cell growth in a cell viability assay.

| SMILES | pIC50 |
| --- | --- |
| COc1cccc2c1C(=O)c1c(O)c3c(c(O)c1C2=O)C[C@@](O)(C(=O)CO)C[C@@H]3O[C@H]1C[C@H](N)[C@H](O)[C@H](C)O1 [DOXORUBICIN] | 6.06 |

Tested on: LB2241-RCC;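 also: cell viability assay measuring how strongly the cultured human renal carcinoma line is prevented from growing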
Test: cells
Assay type: functional, cell-based, Homo sapiens
Conditions: Homo sapiens, LB2241-RCC
Description: SANGER: Inhibition of human LB2241-RCC cell growth in a cell viability assay.

| SMILES | pIC50 |
| --- | --- |
| COc1cccc2c1C(=O)c1c(O)c3c(c(O)c1C2=O)C[C@@](O)(C(=O)CO)C[C@@H]3O[C@H]1C[C@H](N)[C@H](O)[C@H](C)O1 [DOXORUBICIN] | 6.63 |

Tested on: COR-L88;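 also: growth inhibition of COR-L88 cells, read out with a cell viability assay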
Test: cells
Assay type: functional, cell-based, Homo sapiens
Conditions: Homo sapiens, COR-L88
Description: SANGER: Inhibition of human COR-L88 cell growth in a cell viability assay.

| SMILES | pIC50 |
| --- | --- |
| COc1cccc2c1C(=O)c1c(O)c3c(c(O)c1C2=O)C[C@@](O)(C(=O)CO)C[C@@H]3O[C@H]1C[C@H](N)[C@H](O)[C@H](C)O1 [DOXORUBICIN] | < 5.99 |

Tested on: KM-H2;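 also: growth inhibition of KM-H2 cells, read out by a cell viability assay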
Test: cells
Assay type: functional, cell-based, Homo sapiens
Conditions: Homo sapiens, KM-H2
Description: SANGER: Inhibition of human KM-H2 cell growth in a cell viability assay.

| SMILES | pIC50 |
| --- | --- |
| COc1cccc2c1C(=O)c1c(O)c3c(c(O)c1C2=O)C[C@@](O)(C(=O)CO)C[C@@H]3O[C@H]1C[C@H](N)[C@H](O)[C@H](C)O1 [DOXORUBICIN] | 7.04 |

Tested on: DJM-1;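 also: growth inhibition of human DJM-1 cells, read out by a cell viability assay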
Test: cells
Assay type: functional, cell-based, Homo sapiens
Conditions: Homo sapiens, DJM-1
Description: SANGER: Inhibition of human DJM-1 cell growth in a cell viability assay.

| SMILES | pIC50 |
| --- | --- |
| COc1cccc2c1C(=O)c1c(O)c3c(c(O)c1C2=O)C[C@@](O)(C(=O)CO)C[C@@H]3O[C@H]1C[C@H](N)[C@H](O)[C@H](C)O1 [DOXORUBICIN] | 6.99 |

Tested on: NCI-H1770;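 also: growth inhibition of NCI-H1770 cells determined with a viability readout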
Test: cells
Assay type: functional, cell-based, Homo sapiens
Conditions: Homo sapiens, NCI-H1770
Description: SANGER: Inhibition of human NCI-H1770 cell growth in a cell viability assay.

| SMILES | pIC50 |
| --- | --- |
| COc1cccc2c1C(=O)c1c(O)c3c(c(O)c1C2=O)C[C@@](O)(C(=O)CO)C[C@@H]3O[C@H]1C[C@H](N)[C@H](O)[C@H](C)O1 [DOXORUBICIN] | 6.88 |

Tested on: Mo
Test: cells
Assay type: functional, cell-based, Homo sapiens
Conditions: Homo sapiens, Mo
Description: SANGER: Inhibition of human Mo-T cell growth in a cell viability assay.

| SMILES | pIC50 |
| --- | --- |
| COc1cccc2c1C(=O)c1c(O)c3c(c(O)c1C2=O)C[C@@](O)(C(=O)CO)C[C@@H]3O[C@H]1C[C@H](N)[C@H](O)[C@H](C)O1 [DOXORUBICIN] | 6.09 |
